Measured values as given in patent publication US9790210B2, “N-(monocyclic aryl),N'-pyrazolyl-urea, thiourea, guanidine and cyanoguanidine compounds as TrkA kinase inhibitors” (Array BioPharma Inc., priority 2012, dated 2017).

Columns and labels:
TrkA = TrkA (Homo sapiens, UniProt P04629); assay: TrkA LanthaScreen Eu Kinase Binding Assay; design: 6HIS tagged cytoplasmic domain from Invitrogen, Catalog No. PV3144; purchased Invitrogen PV3144; conditions: averaged IC50; TR-FRET binding assay; read-out: TrkA Enzyme IC50
TrkA, sequence (P04629 440-796 limits assumed): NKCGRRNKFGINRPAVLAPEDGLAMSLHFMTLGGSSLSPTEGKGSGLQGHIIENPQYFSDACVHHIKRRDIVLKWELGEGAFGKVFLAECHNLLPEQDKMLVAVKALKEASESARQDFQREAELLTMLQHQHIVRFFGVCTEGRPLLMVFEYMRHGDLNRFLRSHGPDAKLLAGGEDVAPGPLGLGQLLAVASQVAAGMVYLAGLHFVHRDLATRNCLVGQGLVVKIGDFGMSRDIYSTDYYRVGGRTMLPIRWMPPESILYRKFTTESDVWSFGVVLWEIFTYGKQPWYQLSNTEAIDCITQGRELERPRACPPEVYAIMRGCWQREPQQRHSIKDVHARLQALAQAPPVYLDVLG
Protocol: TrkA binding activity was determined in a TrkA LanthaScreen™ Eu Kinase Binding Assay. 5 nM His-tagged recombinant human TrkA (6HIS tagged cytoplasmic domain from Invitrogen, Catalog No. PV3144) was incubated with 4 nM Alexa-Fluor® Tracer 236 (Invitrogen Cat. No. PV5592), 2 nM biotinylated anti-His (Invitrogen Cat. No. PV6090), and 2 nM europium-labeled Streptavidin (Invitrogen Cat. No. PV5899), in buffer (25 mM MOPS, pH 7.5, 5 mM MgCl2, 0.005% Triton X-100). Three fold serial dilutions of compounds of the invention in DMSO were added to a final percentage of 2% DMSO. After 60-minute incubation at 22° C., the reaction was measured using the EnVision mutlimode plate reader (PerkinElmer) via TR-FRET dual wavelength detection at […]. The percent of control was calculated using a ratiometric emission factor. The IC50 values were determined by fitting a four parameter model to the percent of control data.
Table A provides averaged IC50 values for compounds of the invention when tested in the assay of Example A, where A represents an averaged IC50 value<100 nM; B represents an averaged IC50 value from 100 to 1,000 nM; and C represents an averaged IC50 value from 1,000 to 10,000 nM.

ROCK-II = molecular target: T1, ROCK-II (Homo sapiens, UniProt O75116); assay: KinaseProfiler; assay type: biochemical; conditions: 10 μM, ATP near Km
T1 construct: purchased Millipore, Inc. (KinaseProfiler service)
Protocol: (§1) A representative compound (Example 15) of the invention was tested for off-target kinase activity at a concentration of 10 μM by Millipore, Inc. in their KinaseProfiler™ service against all the kinases available in their full kinase panel. The compound was run in duplicate at a concentration of ATP near the Km for each individual kinase according to Millipore's specifications. The results are shown in Table B. Data are reported as percent of control (POC) and are the average of the two replicates.

CDK9/cyclinT1 = molecular target: T2, CDK9/cyclinT1 (Homo sapiens, UniProt P50750); assay: KinaseProfiler; assay type: biochemical; conditions: 10 μM, ATP near Km
T2 construct: purchased Millipore, Inc. (KinaseProfiler service)
Protocol: as §1

MYLK = molecular target: T3, MYLK (Homo sapiens, UniProt Q15746); assay: KinaseProfiler; assay type: biochemical; conditions: 10 μM, ATP near Km
T3 construct: purchased Millipore, Inc. (KinaseProfiler service)
Protocol: as §1

EphA1 = molecular target: T4, EphA1 (Homo sapiens, UniProt P21709); assay: KinaseProfiler; assay type: biochemical; conditions: 10 μM, ATP near Km
T4 construct: purchased Millipore, Inc. (KinaseProfiler service)
Protocol: as §1

NEK3 = molecular target: T5, NEK3 (Homo sapiens, UniProt P51956); assay: KinaseProfiler; assay type: biochemical; conditions: 10 μM, ATP near Km
T5 construct: purchased Millipore, Inc. (KinaseProfiler service)
Protocol: as §1

Abl-P = molecular target: T6, Abl-P (Homo sapiens, UniProt P00519); assay: KinaseProfiler; assay type: biochemical; conditions: 10 μM, ATP near Km
T6 construct: purchased Millipore (KinaseProfiler service)
Protocol: as §1

PKD1 = molecular target: T7, PKD1 (Homo sapiens, UniProt Q15139); assay: KinaseProfiler; assay type: biochemical; conditions: 10 μM, ATP near Km
T7 construct: purchased Millipore, Inc. (KinaseProfiler service)
Protocol: as §1

MELK = molecular target: T8, MELK (Homo sapiens, UniProt Q14680); assay: KinaseProfiler; assay type: biochemical; conditions: 10 μM, ATP near Km
T8 construct: purchased Millipore, Inc. (KinaseProfiler service)
Protocol: as §1

EphB3 = molecular target: T9, EphB3 (Homo sapiens, UniProt P54753); assay: KinaseProfiler; assay type: biochemical; conditions: 10 μM, ATP near Km
T9 construct: purchased Millipore, Inc. (KinaseProfiler service)
Protocol: as §1

FAK2 = molecular target: T10, FAK2 (Homo sapiens, UniProt Q14289); assay: KinaseProfiler; assay type: biochemical; conditions: 10 μM, ATP near Km
T10 construct: purchased Millipore, Inc. (KinaseProfiler service)
T10 sequence (Q14289 whole entry): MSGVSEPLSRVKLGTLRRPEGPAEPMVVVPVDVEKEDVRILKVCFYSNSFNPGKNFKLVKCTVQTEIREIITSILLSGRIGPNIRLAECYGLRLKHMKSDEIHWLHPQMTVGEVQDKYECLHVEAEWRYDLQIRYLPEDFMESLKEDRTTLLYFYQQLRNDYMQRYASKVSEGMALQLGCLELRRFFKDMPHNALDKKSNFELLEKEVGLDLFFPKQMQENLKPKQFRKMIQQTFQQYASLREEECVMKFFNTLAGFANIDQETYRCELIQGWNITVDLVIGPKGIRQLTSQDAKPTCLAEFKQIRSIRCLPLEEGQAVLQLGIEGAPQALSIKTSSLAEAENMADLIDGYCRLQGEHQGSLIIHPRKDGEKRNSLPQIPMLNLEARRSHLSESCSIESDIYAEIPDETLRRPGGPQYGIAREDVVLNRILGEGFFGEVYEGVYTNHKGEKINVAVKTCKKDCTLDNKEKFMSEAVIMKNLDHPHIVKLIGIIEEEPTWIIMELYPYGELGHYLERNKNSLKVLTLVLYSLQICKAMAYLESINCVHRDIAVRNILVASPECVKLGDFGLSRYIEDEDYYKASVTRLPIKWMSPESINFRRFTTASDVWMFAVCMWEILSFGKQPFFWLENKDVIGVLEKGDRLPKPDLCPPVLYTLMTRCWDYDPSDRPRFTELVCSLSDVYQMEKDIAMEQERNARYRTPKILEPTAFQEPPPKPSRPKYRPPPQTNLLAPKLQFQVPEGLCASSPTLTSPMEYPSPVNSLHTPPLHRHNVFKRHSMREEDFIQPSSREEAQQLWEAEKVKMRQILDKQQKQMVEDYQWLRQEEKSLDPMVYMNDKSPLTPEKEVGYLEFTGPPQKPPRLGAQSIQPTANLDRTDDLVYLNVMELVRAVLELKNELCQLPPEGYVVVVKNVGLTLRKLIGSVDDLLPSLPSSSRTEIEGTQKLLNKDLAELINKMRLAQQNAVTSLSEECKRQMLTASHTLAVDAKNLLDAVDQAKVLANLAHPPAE
Protocol: as §1

p38alpha = molecular target: T11, p38alpha (Homo sapiens, UniProt Q16539); assay: KinaseProfiler; assay type: biochemical; conditions: 10 μM, ATP near Km
T11 construct: purchased Millipore, Inc. (KinaseProfiler service)
Protocol: as §1

CK2 = molecular target: T12, CK2 (Homo sapiens, UniProt P68400); assay: KinaseProfiler; assay type: biochemical; conditions: 10 μM, ATP near Km
T12 construct: purchased Millipore, Inc. (KinaseProfiler service)
Protocol: as §1

FAK = molecular target: T13, FAK (Homo sapiens, UniProt Q05397); assay: KinaseProfiler; assay type: biochemical; conditions: 10 μM, ATP near Km
T13 construct: purchased Millipore, Inc. (KinaseProfiler service)
Protocol: as §1

PKCbetaI = molecular target: T14, PKCbetaI (Homo sapiens, UniProt P05771); assay: KinaseProfiler; assay type: biochemical; conditions: 10 μM, ATP near Km
T14 construct: purchased Millipore, Inc. (KinaseProfiler service)
T14 sequence (P05771 whole entry): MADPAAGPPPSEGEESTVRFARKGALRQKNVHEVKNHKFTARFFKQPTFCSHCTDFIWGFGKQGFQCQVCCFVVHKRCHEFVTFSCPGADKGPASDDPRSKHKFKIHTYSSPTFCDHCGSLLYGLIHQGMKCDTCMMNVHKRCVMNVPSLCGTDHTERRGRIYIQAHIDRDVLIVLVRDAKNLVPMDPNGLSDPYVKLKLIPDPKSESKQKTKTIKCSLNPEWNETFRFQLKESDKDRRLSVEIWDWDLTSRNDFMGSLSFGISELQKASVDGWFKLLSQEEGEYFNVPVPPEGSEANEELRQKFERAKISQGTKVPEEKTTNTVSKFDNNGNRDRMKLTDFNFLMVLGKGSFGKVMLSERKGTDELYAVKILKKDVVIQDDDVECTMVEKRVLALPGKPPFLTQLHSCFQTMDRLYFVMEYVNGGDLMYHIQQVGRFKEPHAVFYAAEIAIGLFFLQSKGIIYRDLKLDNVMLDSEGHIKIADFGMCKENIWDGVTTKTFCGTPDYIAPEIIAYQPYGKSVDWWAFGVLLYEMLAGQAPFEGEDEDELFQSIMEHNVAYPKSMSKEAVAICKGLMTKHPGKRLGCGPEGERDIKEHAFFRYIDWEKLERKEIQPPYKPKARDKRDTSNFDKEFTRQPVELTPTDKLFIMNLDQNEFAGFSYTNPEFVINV
Protocol: as §1

NEK2 = molecular target: T15, NEK2 (Homo sapiens, UniProt P51955); assay: KinaseProfiler; assay type: biochemical; conditions: 10 μM, ATP near Km
T15 construct: purchased Millipore, Inc. (KinaseProfiler service)
Protocol: as §1

Rsk3 = molecular target: T16, Rsk3 (Homo sapiens, UniProt Q15349); assay: KinaseProfiler; assay type: biochemical; conditions: 10 μM, ATP near Km
T16 construct: purchased Millipore, Inc. (KinaseProfiler service)
Protocol: as §1

p38gamma = molecular target: T17, p38gamma (Homo sapiens, UniProt P53778); assay: KinaseProfiler; assay type: biochemical; conditions: 10 μM, ATP near Km
T17 construct: purchased Millipore, Inc. (KinaseProfiler service)
Protocol: as §1

TrkB = molecular target: T18, TrkB (Homo sapiens, UniProt Q16620); assay: KinaseProfiler; assay type: biochemical; conditions: 10 μM, ATP near Km
T18 construct: purchased Millipore, Inc. (KinaseProfiler service)
T18 sequence (Q16620 32-822): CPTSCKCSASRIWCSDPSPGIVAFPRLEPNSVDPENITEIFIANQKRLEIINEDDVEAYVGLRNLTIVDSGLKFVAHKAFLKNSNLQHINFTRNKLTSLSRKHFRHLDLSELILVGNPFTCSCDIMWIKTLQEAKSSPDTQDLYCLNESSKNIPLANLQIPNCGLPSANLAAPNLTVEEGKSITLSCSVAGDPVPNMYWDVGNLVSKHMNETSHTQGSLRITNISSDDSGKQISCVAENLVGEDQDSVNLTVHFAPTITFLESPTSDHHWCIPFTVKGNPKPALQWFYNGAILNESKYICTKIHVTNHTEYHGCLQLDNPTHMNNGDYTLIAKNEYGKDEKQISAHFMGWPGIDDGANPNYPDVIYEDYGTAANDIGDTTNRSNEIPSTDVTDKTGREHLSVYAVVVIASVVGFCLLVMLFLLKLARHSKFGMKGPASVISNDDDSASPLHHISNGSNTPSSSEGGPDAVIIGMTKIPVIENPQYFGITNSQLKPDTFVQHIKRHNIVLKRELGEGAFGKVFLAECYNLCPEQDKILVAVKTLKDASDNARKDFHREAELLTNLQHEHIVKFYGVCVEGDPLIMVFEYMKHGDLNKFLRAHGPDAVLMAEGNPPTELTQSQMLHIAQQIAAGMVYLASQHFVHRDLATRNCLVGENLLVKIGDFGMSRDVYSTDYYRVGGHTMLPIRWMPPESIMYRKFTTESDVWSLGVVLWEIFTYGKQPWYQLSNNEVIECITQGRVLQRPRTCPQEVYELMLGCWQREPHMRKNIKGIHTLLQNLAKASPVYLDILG
Protocol: as §1

KIT = molecular target: T19, KIT (Homo sapiens, UniProt P10721); assay: KinaseProfiler; assay type: biochemical; conditions: 10 μM, ATP near Km
T19 construct: purchased Millipore, Inc. (KinaseProfiler service)
Protocol: as §1

PKCzeta = molecular target: T20, PKCzeta (Homo sapiens, UniProt Q05513); assay: KinaseProfiler; assay type: biochemical; conditions: 10 μM, ATP near Km
T20 construct: purchased Millipore, Inc. (KinaseProfiler service)
Protocol: as §1

EphB2 = molecular target: T21, EphB2 (Homo sapiens, UniProt P29323); assay: KinaseProfiler; assay type: biochemical; conditions: 10 μM, ATP near Km
T21 construct: purchased Millipore, Inc. (KinaseProfiler service)
Protocol: as §1

Yes = molecular target: T22, Yes (Homo sapiens, UniProt P07947); assay: KinaseProfiler; assay type: biochemical; conditions: 10 μM, ATP near Km
T22 construct: purchased Millipore, Inc. (KinaseProfiler service)
Protocol: as §1

PKCalpha = molecular target: T23, PKCalpha (Homo sapiens, UniProt P17252); assay: KinaseProfiler; assay type: biochemical; conditions: 10 μM, ATP near Km
T23 construct: purchased Millipore, Inc. (KinaseProfiler service)
Protocol: as §1

WNK2 = molecular target: T24, WNK2 (Homo sapiens, UniProt Q9Y3S1); assay: KinaseProfiler; assay type: biochemical; conditions: 10 μM, ATP near Km
T24 construct: purchased Millipore, Inc. (KinaseProfiler service)
Protocol: as §1

ALK4 = molecular target: T25, ALK4 (Homo sapiens, UniProt P36896); assay: KinaseProfiler; assay type: biochemical; conditions: 10 μM, ATP near Km
T25 construct: purchased Millipore (KinaseProfiler service)
T25 sequence (P36896 24-505): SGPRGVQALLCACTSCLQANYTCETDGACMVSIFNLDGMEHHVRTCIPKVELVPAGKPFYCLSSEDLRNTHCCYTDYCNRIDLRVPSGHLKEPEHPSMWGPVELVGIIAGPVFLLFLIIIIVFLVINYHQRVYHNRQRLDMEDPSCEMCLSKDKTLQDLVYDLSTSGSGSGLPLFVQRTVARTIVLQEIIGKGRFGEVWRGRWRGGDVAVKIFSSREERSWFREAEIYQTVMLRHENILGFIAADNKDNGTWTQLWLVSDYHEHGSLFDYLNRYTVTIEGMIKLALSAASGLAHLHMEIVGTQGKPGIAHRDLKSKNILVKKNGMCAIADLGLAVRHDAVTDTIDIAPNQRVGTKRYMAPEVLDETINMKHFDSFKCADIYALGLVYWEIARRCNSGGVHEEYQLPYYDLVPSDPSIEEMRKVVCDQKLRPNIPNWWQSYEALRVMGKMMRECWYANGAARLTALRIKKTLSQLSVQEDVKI
Protocol: as §1

SGK3 = molecular target: T26, SGK3 (Homo sapiens, UniProt Q96BR1); assay: KinaseProfiler; assay type: biochemical; conditions: 10 μM, ATP near Km
T26 construct: purchased Millipore, Inc. (KinaseProfiler service)
T26 sequence (Q96BR1 whole entry): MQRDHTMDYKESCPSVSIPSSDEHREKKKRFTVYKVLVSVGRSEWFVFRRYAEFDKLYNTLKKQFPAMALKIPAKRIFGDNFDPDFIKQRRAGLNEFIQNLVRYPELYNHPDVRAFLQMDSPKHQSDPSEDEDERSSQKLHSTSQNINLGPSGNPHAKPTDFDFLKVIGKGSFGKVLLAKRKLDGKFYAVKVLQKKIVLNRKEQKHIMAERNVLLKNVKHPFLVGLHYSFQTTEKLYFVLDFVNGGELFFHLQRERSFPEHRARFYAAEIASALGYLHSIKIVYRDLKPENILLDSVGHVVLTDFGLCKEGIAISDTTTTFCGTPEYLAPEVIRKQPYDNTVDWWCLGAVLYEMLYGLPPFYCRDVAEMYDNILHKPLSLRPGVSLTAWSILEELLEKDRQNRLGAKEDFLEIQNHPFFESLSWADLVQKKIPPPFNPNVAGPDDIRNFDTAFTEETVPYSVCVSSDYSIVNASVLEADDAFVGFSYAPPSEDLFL
Protocol: as §1

CDK3/cyclinE = molecular target: T27, CDK3/cyclinE (Homo sapiens, UniProt Q00526); assay: KinaseProfiler; assay type: biochemical; conditions: 10 μM, ATP near Km
T27 construct: purchased Millipore, Inc. (KinaseProfiler service)
T27 sequence (Q00526 whole entry): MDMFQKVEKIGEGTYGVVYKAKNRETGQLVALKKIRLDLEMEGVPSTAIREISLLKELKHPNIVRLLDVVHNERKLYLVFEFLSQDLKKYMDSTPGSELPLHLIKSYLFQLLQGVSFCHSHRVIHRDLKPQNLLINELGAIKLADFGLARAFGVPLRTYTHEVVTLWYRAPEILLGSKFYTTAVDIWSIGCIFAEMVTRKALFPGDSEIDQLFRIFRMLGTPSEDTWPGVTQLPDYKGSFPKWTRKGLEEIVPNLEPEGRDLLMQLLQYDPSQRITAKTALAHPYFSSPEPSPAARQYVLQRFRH
T27 sequence (P24864 whole entry partner): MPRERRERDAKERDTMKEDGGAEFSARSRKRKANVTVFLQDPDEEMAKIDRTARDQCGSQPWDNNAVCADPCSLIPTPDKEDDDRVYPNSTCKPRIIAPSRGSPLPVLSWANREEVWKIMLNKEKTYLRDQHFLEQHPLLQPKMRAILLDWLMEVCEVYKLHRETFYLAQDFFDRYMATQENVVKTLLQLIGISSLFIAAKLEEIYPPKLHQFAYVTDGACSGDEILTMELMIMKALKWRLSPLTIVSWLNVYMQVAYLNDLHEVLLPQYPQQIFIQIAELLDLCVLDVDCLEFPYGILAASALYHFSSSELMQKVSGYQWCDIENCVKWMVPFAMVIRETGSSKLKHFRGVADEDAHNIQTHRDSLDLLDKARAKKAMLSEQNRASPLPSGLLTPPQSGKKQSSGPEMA
Protocol: as §1

MAP4K2 = molecular target: T28, MAP4K2 (Homo sapiens, UniProt Q12851); assay: KinaseProfiler; assay type: biochemical; conditions: 10 μM, ATP near Km
T28 construct: purchased Millipore, Inc. (KinaseProfiler service)
Protocol: as §1

GRK5 = molecular target: T29, GRK5 (Homo sapiens, UniProt P34947); assay: KinaseProfiler; assay type: biochemical; conditions: 10 μM, ATP near Km
T29 construct: purchased Millipore, Inc. (KinaseProfiler service)
Protocol: as §1

MAPKAP-K3 = molecular target: T30, MAPKAP-K3 (Homo sapiens, UniProt Q16644); assay: KinaseProfiler; assay type: biochemical; conditions: 10 μM, ATP near Km
T30 construct: purchased Millipore, Inc. (KinaseProfiler service)
T30 sequence (Q16644 whole entry): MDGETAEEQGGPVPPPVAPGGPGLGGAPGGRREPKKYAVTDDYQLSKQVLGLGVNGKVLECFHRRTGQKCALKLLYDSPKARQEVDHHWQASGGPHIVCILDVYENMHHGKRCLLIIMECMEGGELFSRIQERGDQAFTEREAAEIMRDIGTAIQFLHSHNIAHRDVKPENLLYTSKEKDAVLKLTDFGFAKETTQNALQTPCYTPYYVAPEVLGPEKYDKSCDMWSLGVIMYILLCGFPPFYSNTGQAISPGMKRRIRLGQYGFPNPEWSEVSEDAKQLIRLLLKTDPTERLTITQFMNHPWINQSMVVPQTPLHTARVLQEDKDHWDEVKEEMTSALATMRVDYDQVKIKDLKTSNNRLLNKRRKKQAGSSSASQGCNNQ
Protocol: as §1

IC50 (TrkA): < 100 nM | Avg POC (ROCK-II): 99 POC | Avg POC (CDK9/cyclinT1): 112.5 POC | Avg POC (MYLK): 111.5 POC | Avg POC (EphA1): 117 POC | Avg POC (NEK3): 120 POC | Avg POC (Abl-P): 140.5 POC | Avg POC (PKD1): 113.5 POC | Avg POC (MELK): 142.5 POC | Avg POC (EphB3): 78.5 POC | Avg POC (FAK2): 102.5 POC | Avg POC (p38alpha): 100.5 POC | Avg POC (CK2): 94.5 POC | Avg POC (FAK): 103.5 POC | Avg POC (PKCbetaI): 106 POC | Avg POC (NEK2): 88.5 POC | Avg POC (Rsk3): 104 POC | Avg POC (p38gamma): 108 POC | Avg POC (TrkB): 105 POC | Avg POC (KIT): 99.5 POC | Avg POC (PKCzeta): 103 POC | Avg POC (EphB2): 112.5 POC | Avg POC (Yes): 120.5 POC | Avg POC (PKCalpha): 104 POC | Avg POC (WNK2): 122.5 POC | Avg POC (ALK4): 113 POC | Avg POC (SGK3): 132 POC | Avg POC (CDK3/cyclinE): 101 POC | Avg POC (MAP4K2): 112.5 POC | Avg POC (GRK5): 90 POC | Avg POC (MAPKAP-K3): 112.5 POC
Compound: COCCCc1cc(Cl)c(Cl)cc1NC(=O)Nc1c(C)c(-c2cnn(C)c2)nn1-c1ccccc1 [Example 15, 1-(4,5-dichloro-2-(3-methoxypropyl)phenyl)-3-(1′,4-dimethyl-1-phenyl-1H,1′H-[3,4′-bipyrazol]-5-yl)urea]
